Results as given in publication PMC2757673, “Protein Misfolding as an Underlying Molecular Defect in Mucopolysaccharidosis III Type C” (PLoS ONE, 2009).
Counter-ions that a name gives are not always drawn.

Tests used:
[1] = biological target: T1, HGSNAT (heparan sulfate acetyl-CoA: α-glucosaminide N-acetyltransferase), HGSNAT-TAP (Homo sapiens, UniProt Q68CP4); assay: fluorogenic N-acetyltransferase assay, Lineweaver-Burk plot, partially purified (streptavidin resin) enzyme; format: biochemical; conditions: acetyl-CoA co-substrate, 4MU-βGlcN 0.05-2.0 mM, McIlvain buffer pH 5.7, 37°C, 18 h
T1 construct: transient expression in COS-7 cells; homogenate or streptavidin-resin partially purified; ~77 kDa
T1 sequence (Q68CP4 1-663): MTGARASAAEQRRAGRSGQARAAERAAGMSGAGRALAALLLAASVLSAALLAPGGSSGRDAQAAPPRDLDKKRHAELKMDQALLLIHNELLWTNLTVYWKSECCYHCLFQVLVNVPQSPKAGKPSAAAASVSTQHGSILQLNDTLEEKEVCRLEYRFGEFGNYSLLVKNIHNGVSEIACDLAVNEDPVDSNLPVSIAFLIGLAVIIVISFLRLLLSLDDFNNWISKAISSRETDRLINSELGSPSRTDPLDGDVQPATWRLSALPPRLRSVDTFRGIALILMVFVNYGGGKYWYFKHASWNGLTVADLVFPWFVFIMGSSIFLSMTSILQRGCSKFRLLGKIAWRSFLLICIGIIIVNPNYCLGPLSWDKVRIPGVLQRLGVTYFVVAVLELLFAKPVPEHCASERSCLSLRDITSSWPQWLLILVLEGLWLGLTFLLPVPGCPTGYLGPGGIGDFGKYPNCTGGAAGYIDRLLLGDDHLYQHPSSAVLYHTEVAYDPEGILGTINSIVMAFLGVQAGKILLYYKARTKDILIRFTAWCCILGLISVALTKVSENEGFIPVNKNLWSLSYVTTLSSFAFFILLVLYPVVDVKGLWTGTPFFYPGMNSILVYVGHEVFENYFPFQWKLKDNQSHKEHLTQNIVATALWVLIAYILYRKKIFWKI

[2] = biological target: T1, HGSNAT (heparan sulfate acetyl-CoA: α-glucosaminide N-acetyltransferase), HGSNAT-TAP; assay: fluorogenic N-acetyltransferase assay, Dixon plot, homogenate of transfected COS-7 cells; format: biochemical; conditions: competitive; 4MU-βGlcN 0.0375-1.5 mM, 2 mM acetyl-CoA, McIlvain buffer pH 5.7, 37°C, 3 h

Structure (SMILES)	KM [1]	Ki [2] [µM]
Cc1cc(=O)oc2cc(O[C@@H]3O[C@H](CO)[C@@H](O)[C@H](O)[C@H]3N)ccc12 [4MU-βGlcN, 4-methylumbelliferyl β-D-glucosaminide]	Lineweaver-Burk plot of substrate dependance for partially purified HGSNAT wild-type and P237Q and V481L mutants	–
N[C@H]1C(O)O[C@H](CO)[C@@H](O)[C@@H]1O (stereo partly drawn) [D-(+)-glucosamine hydrochloride]	–	280
